According to ChEMBL document CHEMBL1140276, “Synthesis of 4(5)-phenylimidazole-based analogues of sphingosine-1-phosphate and FTY720: discovery of potent S1P1 receptor agonists” (Bioorg Med Chem Lett, 2005):

Columns and labels:
[1] = target: T1, Sphingosine 1-phosphate receptor 4 (Homo sapiens, UniProt O95977); assay: Effective concentration against sphingosine 1-phosphate receptor 4 determined by a [c-35S]-GTP binding assay
T1 sequence (O95977 whole entry): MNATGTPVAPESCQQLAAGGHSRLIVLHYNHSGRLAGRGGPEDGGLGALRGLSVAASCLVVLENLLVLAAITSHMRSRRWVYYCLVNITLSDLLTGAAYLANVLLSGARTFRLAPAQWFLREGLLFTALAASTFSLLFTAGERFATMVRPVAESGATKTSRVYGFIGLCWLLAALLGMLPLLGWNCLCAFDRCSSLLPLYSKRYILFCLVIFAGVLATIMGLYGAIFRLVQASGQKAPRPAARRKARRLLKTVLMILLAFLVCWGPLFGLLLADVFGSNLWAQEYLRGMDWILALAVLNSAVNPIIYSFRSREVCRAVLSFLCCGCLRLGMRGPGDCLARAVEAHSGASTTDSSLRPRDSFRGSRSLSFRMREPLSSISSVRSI

[2] = target: T2, Sphingosine 1-phosphate receptor 5 (Homo sapiens, UniProt Q9H228); assay: Maximal efficacy against sphingosine 1-phosphate receptor 5 determined by a [c-35S]-GTP binding assay
T2 sequence (Q9H228 whole entry): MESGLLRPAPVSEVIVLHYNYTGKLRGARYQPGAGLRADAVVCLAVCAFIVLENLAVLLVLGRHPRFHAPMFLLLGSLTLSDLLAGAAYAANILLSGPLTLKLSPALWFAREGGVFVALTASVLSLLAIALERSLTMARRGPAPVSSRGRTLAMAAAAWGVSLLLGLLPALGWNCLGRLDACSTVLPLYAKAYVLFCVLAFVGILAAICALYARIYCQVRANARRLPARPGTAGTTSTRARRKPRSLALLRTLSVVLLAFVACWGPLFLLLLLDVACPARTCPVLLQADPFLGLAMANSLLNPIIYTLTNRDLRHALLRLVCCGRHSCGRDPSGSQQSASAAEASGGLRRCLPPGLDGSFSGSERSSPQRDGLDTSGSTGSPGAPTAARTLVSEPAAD

[3] = target: T3, Sphingosine 1-phosphate receptor 2 (Homo sapiens, UniProt O95136); assay: Maximal efficacy against sphingosine 1-phosphate receptor 2 determined by a [c-35S]-GTP binding assay
T3 sequence (O95136 whole entry): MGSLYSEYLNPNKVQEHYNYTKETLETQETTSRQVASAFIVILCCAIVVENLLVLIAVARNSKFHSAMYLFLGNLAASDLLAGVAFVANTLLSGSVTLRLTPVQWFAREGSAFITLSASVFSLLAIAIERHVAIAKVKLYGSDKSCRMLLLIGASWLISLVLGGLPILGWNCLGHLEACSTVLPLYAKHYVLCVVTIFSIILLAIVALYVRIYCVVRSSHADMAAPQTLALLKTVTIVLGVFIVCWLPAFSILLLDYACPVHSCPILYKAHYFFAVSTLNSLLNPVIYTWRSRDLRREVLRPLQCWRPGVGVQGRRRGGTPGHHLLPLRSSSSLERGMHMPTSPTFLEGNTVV

[4] = target: T4, Sphingosine 1-phosphate receptor 3 (Homo sapiens, UniProt Q99500); assay: Maximal efficacy against sphingosine 1-phosphate receptor 3 determined by a [c-35S]-GTP binding assay
T4 sequence (Q99500 whole entry): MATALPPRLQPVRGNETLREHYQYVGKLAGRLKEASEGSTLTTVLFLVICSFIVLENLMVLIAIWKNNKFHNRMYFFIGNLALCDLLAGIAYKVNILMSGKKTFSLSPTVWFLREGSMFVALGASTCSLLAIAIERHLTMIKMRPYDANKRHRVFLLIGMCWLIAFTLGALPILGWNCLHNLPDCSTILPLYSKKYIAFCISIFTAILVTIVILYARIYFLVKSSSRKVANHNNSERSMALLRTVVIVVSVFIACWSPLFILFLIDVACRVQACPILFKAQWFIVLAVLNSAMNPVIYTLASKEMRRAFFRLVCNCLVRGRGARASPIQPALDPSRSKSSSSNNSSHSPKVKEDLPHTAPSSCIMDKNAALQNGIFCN

[5] = target: T4, Sphingosine 1-phosphate receptor 3; assay: Effective concentration against sphingosine 1-phosphate receptor 3 determined by a [c-35S]-GTP binding assay
[6] = target: T5, Sphingosine 1-phosphate receptor 1 (Homo sapiens, UniProt P21453); assay: Maximal efficacy against sphingosine-1-phosphate receptor 1 determined by a [c-35S]-GTP binding assay
T5 sequence (P21453 whole entry): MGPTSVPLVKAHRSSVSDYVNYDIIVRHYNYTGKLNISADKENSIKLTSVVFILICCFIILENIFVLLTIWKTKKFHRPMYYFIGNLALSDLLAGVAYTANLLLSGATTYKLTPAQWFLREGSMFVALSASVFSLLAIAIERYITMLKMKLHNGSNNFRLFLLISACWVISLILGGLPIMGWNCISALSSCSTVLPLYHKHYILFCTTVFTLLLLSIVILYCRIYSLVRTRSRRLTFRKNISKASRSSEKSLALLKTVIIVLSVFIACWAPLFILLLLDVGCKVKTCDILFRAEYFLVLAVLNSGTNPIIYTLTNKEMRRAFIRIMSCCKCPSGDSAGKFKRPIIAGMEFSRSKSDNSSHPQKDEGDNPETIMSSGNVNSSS

[7] = target: T5, Sphingosine 1-phosphate receptor 1; assay: Effective concentration against sphingosine-1-phosphate receptor 1 determined by a [c-35S]-GTP binding assay
[8] = target: T6, Sphingosine 1-phosphate receptor 4 (Homo sapiens) (UniProt O95977); assay: Maximal efficacy against sphingosine 1-phosphate receptor 4 determined by a [c-35S]-GTP binding assay
T6 sequence (whole entry): T1 sequence (O95977 whole entry)

[9] = target: T2, Sphingosine 1-phosphate receptor 5; assay: Effective concentration against sphingosine 1-phosphate receptor 5 determined by a [c-35S]-GTP binding assay
[10] = target: T3, Sphingosine 1-phosphate receptor 2; assay: Effective concentration against sphingosine 1-phosphate receptor 2 determined by a [c-35S]-GTP binding assay
[11] = target: T3, Sphingosine 1-phosphate receptor 2; assay: Maximal efficacy against sphingosine 1-phosphate receptor 2 determined by a [c-35S]-GTP binding assay;
[12] = target: T3, Sphingosine 1-phosphate receptor 2; assay: Maximal efficacy against sphingosine 1-phosphate receptor 2 determined by a [c-35S]-GTP binding assay; no agonist activity
[13] = target: T6, Sphingosine 1-phosphate receptor 4 (Homo sapiens); assay: Maximal efficacy against sphingosine 1-phosphate receptor 4 determined by a [c-35S]-GTP binding assay; no agonist activity
[14] = target: T4, Sphingosine 1-phosphate receptor 3; assay: Maximal efficacy against sphingosine 1-phosphate receptor 3 determined by a [c-35S]-GTP binding assay; no agonist activity

| SMILES | EC50 [1] [nM] | Emax [2] | Emax [3] | Emax [4] | EC50 [5] [nM] | Emax [6] | EC50 [7] [nM] | Emax [8] | EC50 [9] [nM] | EC50 [10] [nM] | Emax [11] | Emax [12] | Emax [13] | Emax [14] |
| --- | --- | --- | --- | --- | --- | --- | --- | --- | --- | --- | --- | --- | --- | --- |
| CCCCCCCCc1ccc(-c2c[nH]c(C(N)(CO)COP(O)(O)=S)n2)cc1 (configuration not stated) | 89 | 0.56 | 0 | 0.68 | 790 | 0.66 | 150 | 0.72 | 16 |  |  |  |  |  |
| CCCCCCCCc1ccc(-c2c[nH]c(C(C)(N)COP(O)(O)=S)n2)cc1 (configuration not stated) | 170 | 0.6 | 0 | 0.44 | 1600 | 0.87 | 9.8 | 0.68 | 51 |  |  |  |  |  |
| CCCCCCCCCCCCC/C=C/[C@@H](O)[C@@H](N)COP(=O)(O)O |  | 1 | 1 | 1 |  | 1 |  | 1 |  |  |  |  |  |  |
| CCCCCCCCc1ccc(-c2c[nH]c(C(N)(CO)COP(=O)(O)O)n2)cc1 (configuration not stated) | 160 | 0.66 | 0.95 | 0.21 | 630 | 0.91 | 7.9 | 0.87 | 17 | 18 |  |  |  |  |
| CCCCCCCCc1ccc(-c2c[nH]c([C@@H](N)COP(O)(O)=S)n2)cc1 | 190 | 0.82 | 0 | 0.45 | 690 | 0.67 | 6.4 | 0.82 | 29 |  |  |  |  |  |
| CCCCCCCCc1ccc(CCC(N)(CO)COP(=O)(O)O)cc1 (configuration not stated) | 41 | 0.56 | 0 | 0.5 |  | 1 |  | 0.78 |  |  |  |  |  |  |

More lines, now with the values ahead:

| EC50 [1] [nM] | Emax [2] | Emax [3] | Emax [4] | EC50 [5] [nM] | Emax [6] | EC50 [7] [nM] | Emax [8] | EC50 [9] [nM] | EC50 [10] [nM] | Emax [11] | Emax [12] | Emax [13] | Emax [14] | SMILES |
| --- | --- | --- | --- | --- | --- | --- | --- | --- | --- | --- | --- | --- | --- | --- |
| 400 | 0.73 | 0 | 0.56 | 1700 | 0.75 | 7 | 1 | 37 |  |  |  |  |  | CCCCCCCCc1ccc(-c2c[nH]c([C@H](N)COP(=O)(O)O)n2)cc1 |
| 91 | 0.72 | 0 | 0.53 | 780 | 0.88 | 4.7 | 0.94 | 26 |  |  |  |  |  | CCCCCCCCc1ccc(-c2c[nH]c(C(C)(N)COP(=O)(O)O)n2)cc1 (configuration not stated) |
| 150 | 0.69 |  | 0.42 | 330 | 0.69 | 4 | 0.79 | 12 |  | 0 |  |  |  | CCCCCCCCc1ccc(-c2c[nH]c([C@@H](N)COP(=O)(O)O)n2)cc1 |
| 660 | 0.48 | 0 | 0 |  | 0.66 | 5100 | 0.79 | 6700 |  |  |  |  |  | CCCCCCCCc1ccc(-c2c[nH]c(C(N)(CO)CO)n2)cc1 |
| 7400 | 0.83 | 0 | 0.38 | 2700 | 0.98 | 2700 | 0.9 | 860 |  |  |  |  |  | CCCCCCCCc1ccc(-c2c[nH]c([C@H](N)CO)n2)cc1 |
|  | 0 |  |  |  | 0 |  |  |  |  |  | 0 | 0 | 0 | CCCCCCCCc1ccc(-c2c[nH]c(C(C)(N)CO)n2)cc1 (configuration not stated) |
